Results: patent US7001920B2, “Formate salt of O-desmethyl-venlafaxine” (Wyeth, priority 2002, dated 2006)
Each block holds one compound with its values, some of them ahead of it.

Legend:
[1] = Solubility in water; assay type: physicochemical; conditions: 26 °C, room temperature (about 25 to 27° C.)
Text: High solubility and high oral absorption are desireable characteristics of a drug, making this salt form of O desmethyl venlafaxine a particularly useful form of O-desmethyl venlafaxine.

[2] = Rat intestinal perfusion test (in situ), effective intestinal permeability Peff; assay type: in vivo; conditions: for Peff ODV Fumarate: 50 μg/ml in pH 6.8 perfusion buffer
Method: O-desmethyl venlafaxine formate was evaluated for oral absorption characteristics. The rat intestinal perfusion model was used.
Rat Intestinal Perfusion Test
(§1) The rat intestine perfusion technique is a direct way to measure the regional absorption properties of a test compound in the gastrointestinal tract. Rat intestinal permeability coefficient (Peff) can be used to predict human in vivo oral absorption of passively absorbed compounds. Fagerholm, M. Johansson, and H. Lennernäs, ? Comparison between permeability coefficients in rat and human jejunum”, Pharm. […] Other characteristics such as formulable Maximum Absorbable Dose (MAD), FDA Biopharmaceutical Classification, etc. can also be estimated.
Perfusion buffer (PB) consisted of KC1 (5.4 mM), NaC1 (48 mM), Na2HPO4 (28 mM), NaH2PO4 (43 mM), mannitol (35 mM), polyethylene glycol (PEG)-4000 (0.1%, w/v), glucose (10 mM). The pH was adjusted to 6.8 with NaOH and osmolarity was adjusted to 290+10 mOsm/l with 1.0 M NaC1. Before the experiment, ^14C-PEC-4000 (0.02 μCi/mL), 3H-mannitol (0.025 μCi/mL), metoprolol (20 μg/mL), and ODV formate or fumarate (50 μg/mL) were added.
Rats used in this study were Charles River CD males, ranging in weight from approximately 300–350 grams.
Metoprolol (a well-absorbed and passively transported compound) was used as a standard and tested simultaneously along with the ODV compounds. Glucose (a well-absorbed and actively transported compound) was used to monitor the physiological functionality of the intestinal barriers. ^14C-labeled PEG-4000 was used as a non-absorbable marker to describe the water flux across the intestinal wall. ^3H-labeled mannitol was used as a paracellularly transported marker to indicate the integrity of the intestinal tight junctions.
All chemicals were of analytical grade. After each experiment, all the analytical assays were performed promptly. For isotope determinations, 0.5 mL of perfusate sample containing ^14C PEG-4000 and ^3H-mannitol was mixed with 5 mL of scintillation cocktail. Radioactivity was counted in a liquid scintillation counter (Wallac 1409). Glucose concentration was determined by the glucose oxidase method (Biochemistry Analyzer). Metoprolol and the ODV compounds were analyzed by HPLC-UV/Vis (HP-1100 with a diode-array detector), using a YMC AQ 120μ, 5μ, 150×4.6 mm column and step gradient mobile phase containing water/0.1% TFA and acetonitrile. The ODV compounds and metoprolol were detected at 226 and 272 nm UV wavelength, respectively. Blank perfusate was assayed to evaluate the interference at these chromatographic conditions.
The perfusions were performed in three intestinal sections of anesthetized rats: duodenum-jejunum, ileum, and colon. The lengths of the segments were approximately 10–12 cm for small intestine segments and 5–6 cm for colon segments. An inflow cannula was inserted at the proximal end and an outflow cannula was inserted at the distal end. Perfusate was pumped through the segment at 0.19 mL/min, and collected at 20, 40, 55, 70, 85 and 100 minutes.
ODV formate or fumarate was added to the perfusion working buffer at a concentration of 50 μg/mL, which is approximately equivalent to a 200 mg human dose. The disappearance rates of ODV compound, metoprolol, and glucose were determined from each collection interval by comparing to the initial compound solution remaining in the syringe at the end of the 100 minutes. This is to correct for any losses due to binding to the syringe or tubing. Meanwhile, drug concentration in perfusate samples were corrected for water influx/efflux, which was computed, based on ^14C-PEG-4000 concentration changes.
Recovery of ^14C-PEG-4000 was determined to provide information on the integrity of the perfused intestinal segment: % PEGrec=(ΣPEGout/ΣPEGin)*100
Overall ^14C-PEG-4000 recovery was calculated and any data for which the individual recovery fell outside of the range of 96%–103% was excluded from the data set. […]

[3] = Human fraction of dose absorbed (Fa) predicted from rat Peff; conditions: for human in vivo Fa (fraction of dose absorbed), estimated: small intestine
Text: as §1
The fraction of dose absorbed, Fa, in human is currently predicted from (Fagerholm, M. ibid: Fa=100*(1−e^−(2*(Peff,rat+β)*(tres/r)) where […] are the correction factors, tres is the residence time in human small intestine; and r is the radius of the human small intestine. Results Rat Jejunal Perfusion Results Site-Specific Absorption of ODV Formate

[4] = tested on: Adrenergic a; conditions: cited from earlier work
[5] = tested on: Histamine H1; conditions: cited from earlier work
[6] = tested on: Norepinephrine reuptake; conditions: in vitro; read-out: Inhibition of amine reuptake (IC50): Norepinephrine; cited from earlier work
[7] = tested on: Cholinergic; conditions: cited from earlier work
[8] = tested on: Dopamine reuptake; conditions: in vitro; read-out: Inhibition of amine reuptake (IC50): Dopamine; cited from earlier work
[9] = tested on: D2; conditions: cited from earlier work
[10] = tested on: Serotonin reuptake; conditions: in vitro; read-out: Inhibition of amine reuptake (IC50): Serotonin; cited from earlier work
[11] = tested on: Opiate; conditions: cited from earlier work
[12] = in vivo, i.p.; cited from earlier work
[13] = male, CD, in vivo, 100 min, 50 μg/mL, pH 6.8

Compound: CN(C)CC(c1ccc(O)cc1)C1(O)CCCCC1.O=CO (centres unmarked) [ODV formate, O-desmethylvenlafaxine formate]
solubility [1]: > 425 mg/mL
Peff as percent of metoprolol's Peff value [2, 13]: about 12%
Peff values in the small intestine [2, 13]: 1.34–2.18 10^−5 cm/sec
human in vivo Fa (fraction of dose absorbed), estimated [3]: about 80%

Compound: CN(C)CC(c1ccc(O)cc1)C1(O)CCCCC1.O=C(O)/C=C/C(=O)O (centres unmarked) [ODV fumarate]
Absorption in the colon ([2]; colon): no measurable absorption
Peff ODV Fumarate / Peff Metoprolol ([2]; colon): 0
Peff ODV Fumarate ([2]; colon): 0 10^−5 cm/sec
Peff ODV Fumarate / Peff Metoprolol ([2]; ileum): 0.19 ± 0.06
Peff ODV Fumarate ([2]; ileum): 0.678 ± 0.295 10^−5 cm/sec
Peff ODV Fumarate / Peff Metoprolol ([2]; jejunum): 0.09
Peff ODV Fumarate ([2]; jejunum): 0.245 10^−5 cm/sec
Peff values in the small intestine ([2]; small intestine (jejunum to ileum)): 0.24–0.68 10^−5 cm/sec
in vivo Fa (fraction of dose absorbed), estimated ([3]; colon): 0%
human in vivo Fa (fraction of dose absorbed), estimated [3]: 33–45%

Peff Metoprolol ([2]; colon, metoprolol 20 μg/mL tested simultaneously with ODV formate): 0.583 ± 0.087 10^−5 cm/sec
Peff Metoprolol ([2]; colon, metoprolol 20 μg/mL tested simultaneously with ODV fumarate): 11 10^−5 cm/sec
Peff Metoprolol ([2]; ileum, metoprolol 20 μg/mL tested simultaneously with ODV formate): 3.22 ± 0.07 10^−5 cm/sec
Peff Metoprolol ([2]; ileum, metoprolol 20 μg/mL tested simultaneously with ODV fumarate): 5.3 10^−5 cm/sec
Peff Metoprolol ([2]; jejunum, metoprolol 20 μg/mL tested simultaneously with ODV formate): 2.50 ± 0.11 10^−5 cm/sec
Peff Metoprolol ([2]; jejunum, metoprolol 20 μg/mL tested simultaneously with ODV fumarate): 1.78 ± 0.93 10^−5 cm/sec
Compound: COCCc1ccc(OCC(O)CNC(C)C)cc1 (centres unmarked) [Metoprolol]

Compound: CN(C)CC(c1ccc(O)cc1)C1(O)CCCCC1 (centres unmarked) [O-desmethylvenlafaxine, 1-[2-(dimethylamino)-1-(4-phenol)ethyl]cyclohexanol]
Affinity for Various Neuroreceptors (% inhibition at 1 uM): Adrenergic a [4]: 0%
Affinity for Various Neuroreceptors (% inhibition at 1 uM): Histamine H1 [5]: 0%
IC50 [6]: 1.16 µM
Affinity for Various Neuroreceptors (% inhibition at 1 uM): Cholinergic [7]: 7%
IC50 [8]: 13.4 µM
Affinity for Various Neuroreceptors (% inhibition at 1 uM): D2 [9]: 6%
IC50 [10]: 0.18 µM
Affinity for Various Neuroreceptors (% inhibition at 1 uM): Opiate [11]: 7%
Reversal of Reserpine-Induce Hypothermia (minimum effect) [12]: 3 mg/kg i.p.
